Tests used:
human TTK = biological target: T1, human TTK (Homo sapiens, UniProt P33981); experiment: TTK inhibition assay (indirect ELISA); assay type: biochemical; settings: GST-TTK 0.68 nM, 16 μM ATP; read-out: IC50 Ranges TTK
T1 construct: amino terminal GST fusion of full length human TTK; purchased Invitrogen
T1 sequence (P33981 1-857): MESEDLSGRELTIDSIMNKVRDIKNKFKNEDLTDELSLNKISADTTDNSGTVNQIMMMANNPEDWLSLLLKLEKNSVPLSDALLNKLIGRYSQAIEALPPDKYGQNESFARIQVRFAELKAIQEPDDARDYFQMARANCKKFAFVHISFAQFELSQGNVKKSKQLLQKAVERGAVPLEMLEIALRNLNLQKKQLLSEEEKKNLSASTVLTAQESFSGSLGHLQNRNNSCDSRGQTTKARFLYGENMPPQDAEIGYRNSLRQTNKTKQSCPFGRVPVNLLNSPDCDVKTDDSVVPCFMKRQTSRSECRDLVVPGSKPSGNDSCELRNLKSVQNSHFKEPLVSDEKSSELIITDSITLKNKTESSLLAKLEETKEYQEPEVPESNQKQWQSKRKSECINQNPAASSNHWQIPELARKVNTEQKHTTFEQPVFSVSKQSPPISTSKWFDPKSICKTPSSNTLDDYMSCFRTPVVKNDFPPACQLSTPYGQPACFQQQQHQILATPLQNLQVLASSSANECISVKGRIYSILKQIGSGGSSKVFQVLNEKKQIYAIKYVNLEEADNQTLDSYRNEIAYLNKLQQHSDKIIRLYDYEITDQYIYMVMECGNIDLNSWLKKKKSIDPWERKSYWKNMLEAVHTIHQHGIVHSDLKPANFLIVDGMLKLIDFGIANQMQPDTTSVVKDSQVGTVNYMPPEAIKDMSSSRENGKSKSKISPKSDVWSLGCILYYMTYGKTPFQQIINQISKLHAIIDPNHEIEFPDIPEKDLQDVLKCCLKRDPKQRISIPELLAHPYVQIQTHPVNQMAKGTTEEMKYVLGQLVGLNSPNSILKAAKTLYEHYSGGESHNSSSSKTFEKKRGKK

human PLK4 = biological target: T2, human PLK4 (Homo sapiens, UniProt O00444); experiment: PLK4 inhibition assay (indirect ELISA); assay type: biochemical; settings: GST-PLK4 4 nM, 15 μM ATP; read-out: IC50 Ranges PLK4
T2 construct: amino terminal GST fusion of residues 1-391 of human PLK4; made in house; host or cells: E. coli
T2 sequence (O00444 1-391): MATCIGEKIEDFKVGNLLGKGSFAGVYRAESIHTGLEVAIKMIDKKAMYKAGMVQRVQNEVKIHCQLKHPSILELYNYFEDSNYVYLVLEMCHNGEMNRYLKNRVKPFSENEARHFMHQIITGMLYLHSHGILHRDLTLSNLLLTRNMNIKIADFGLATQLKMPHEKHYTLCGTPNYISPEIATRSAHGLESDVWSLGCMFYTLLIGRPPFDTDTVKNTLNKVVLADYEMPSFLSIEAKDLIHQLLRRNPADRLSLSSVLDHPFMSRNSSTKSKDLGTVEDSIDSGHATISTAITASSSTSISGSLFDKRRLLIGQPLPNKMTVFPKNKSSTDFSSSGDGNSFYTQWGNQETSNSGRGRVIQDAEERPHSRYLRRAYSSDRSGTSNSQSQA
Procedure, shortened: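 Dephosphorylated GST-tagged human PLK4 (residues 1-391, E. coli), 4 nM, preincubated 15 min with compound, then reacted 30 min with 15 μM ATP on MBP-coated plates (50 mM HEPES pH 7.5, 10 mM MgCl2, 0.01% Brij 35). Phospho-MBP detected by antibody ELISA at 450 nm. Tested at 10 μM or 10-point titrations; IC50 from 4-parameter logistic fit.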

[1] = test system: MDA-MB-468 breast cancer cells; experiment: Cell growth inhibition, Sulforhodamine B assay, MDA-MB-468; assay type: cell-based; settings: Homo sapiens, 120 h, 5 days culture, SRB assay, read-out: Cell Line GI50 Range MDA-MB-468
[2] = test system: HCT116 colon cancer cells; experiment: Cell growth inhibition, Sulforhodamine B assay, HCT116; assay type: cell-based; settings: Homo sapiens, HCT-116, 120 h, 5 days culture, SRB assay, read-out: Cell Line GI50 Range HCT116
HT29 colon cancer cells = experiment: Cell growth inhibition, Sulforhodamine B assay, HT29; assay type: cell-based; settings: Homo sapiens, HT-29, 120 h, 5 days culture, SRB assay, read-out: Cell Line GI50 Range HT29
[3] = test system: PA-1 ovarian cancer cells; experiment: Cell growth inhibition, Sulforhodamine B assay, PA-1; assay type: cell-based; settings: 120 h, 5 days culture, SRB assay, read-out: Cell Line GI50 Range PA-1
[4] = test system: OVCAR-3 ovarian cancer cells; experiment: Cell growth inhibition, Sulforhodamine B assay, OVCAR-3; assay type: cell-based; settings: Homo sapiens, 120 h, 5 days culture, SRB assay, read-out: Cell Line GI50 Range OVCAR-3
[5] = test system: Colon tumor initiating cells (TICs), 12 colon; experiment: Colon tumor-initiating cell growth inhibition (Alamar Blue); assay type: cell-based; settings: 216 h, 9 days, read-out: GI50 range 12 colon
[6] = test system: Ovarian TICs, 2393A ovarian; experiment: Ovarian tumor-initiating cell growth inhibition (Alamar Blue); assay type: cell-based; settings: 144 h, 6 days, read-out: GI50 range 2393A ovarian
[7] = test system: MDA-MB-231 breast cancer cells; experiment: Cell growth inhibition, Sulforhodamine B assay, MDA-MB-231; assay type: cell-based; settings: Homo sapiens, 120 h, 5 days culture, SRB assay, read-out: Cell Line GI50 Range MDA-MB-231
Aurora B = biological target: T3, Aurora B (Homo sapiens, UniProt Q96GD4); experiment: Aurora B inhibition assay (Z-Lyte); assay type: biochemical; settings: 28 nM Aurora B, 128 μM ATP; read-out: IC50 Ranges Aurora B
T3 construct: purchased Invitrogen PV3970
T3 sequence (Q96GD4 whole entry): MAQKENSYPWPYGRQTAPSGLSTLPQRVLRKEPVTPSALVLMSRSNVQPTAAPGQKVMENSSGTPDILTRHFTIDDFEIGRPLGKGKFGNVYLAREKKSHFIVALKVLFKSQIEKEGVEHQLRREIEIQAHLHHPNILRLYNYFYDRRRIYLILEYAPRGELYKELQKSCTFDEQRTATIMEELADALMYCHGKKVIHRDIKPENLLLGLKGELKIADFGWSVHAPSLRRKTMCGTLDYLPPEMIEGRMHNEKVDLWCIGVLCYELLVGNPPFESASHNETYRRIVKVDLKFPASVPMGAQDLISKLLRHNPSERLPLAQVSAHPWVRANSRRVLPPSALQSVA
Procedure: Aurora B inhibition was determined using the Z-Lyte assay kit from Invitrogen. The assay was performed using the recommended manufacturer's instructions with 128 μM ATP and 28 nM Aurora B (Invitrogen cat #PV3970). The % inhibition values were determined according to the manufacturer's directions and IC50 values were obtained using a non-linear 4 point logistic curve fit (XLfit4, IDBS)

IC50 (human TTK) | IC50 (human PLK4) | GI50 [1] | GI50 [2] | GI50 (HT29 colon cancer cells) | GI50 [3] | GI50 [4] | GI50 [5] | GI50 [6] | GI50 [7] | IC50 (Aurora B) | Structure (SMILES)
≤ 5 µM | ≤ 5 µM | ≤ 5 µM | ≤ 5 µM | ≤ 5 µM | ≤ 5 µM | 5 to 20 µM | ≤ 5 µM | ≤ 5 µM |  |  | CO[C@@H](C(=O)Nc1ccc2[nH]nc(-c3ccc(OC4CCN(C=O)CC4)cc3)c2c1)c1ccccc1 [Example A169, (R)—N-(3-(4-((1-formylpiperidin-4-yl)oxy)phenyl)-1H-indazol-5-yl)-2-methoxy-2-phenylacetamide]
≤ 5 µM | ≤ 5 µM | ≤ 5 µM | ≤ 5 µM | ≤ 5 µM | ≤ 5 µM | ≤ 5 µM | ≤ 5 µM | ≤ 5 µM | ≤ 5 µM |  | CN1CCC(Oc2ccc(-c3n[nH]c4ccc(C(=O)NC(c5ccccc5)C5CCCCC5)cc34)cc2)CC1 (centres unmarked) [Example A170, N-(cyclohexyl(phenyl)methyl)-3-(4-((1-methylpiperidin-4-yl)oxy)phenyl)-1H-indazole-5-carboxamide]
≤ 5 µM | ≤ 5 µM | ≤ 5 µM | ≤ 5 µM | ≤ 5 µM | ≤ 5 µM | ≤ 5 µM | ≤ 5 µM | ≤ 5 µM |  | ≤ 5 µM | O=C(NC(c1ccccn1)C1CC1)c1ccc2[nH]nc(-c3ccc(OC4CCN(C5COC5)CC4)cc3)c2c1 (centres unmarked) [Example A171, N-(cyclopropyl(pyridin-2-yl)methyl)-3-(4-((1-(oxetan-3-yl)piperidin-4-yl)oxy)phenyl)-1H-indazole-5-carboxamide]
≤ 5 µM | ≤ 5 µM | ≤ 5 µM | ≤ 5 µM | ≤ 5 µM | ≤ 5 µM |  | ≤ 5 µM | ≤ 5 µM |  | ≤ 5 µM | O=C(Nc1ccc2[nH]nc(-c3ccc(N4CCOCC4)cc3)c2c1)C(c1ccsc1)N1CCC1 (centres unmarked) [Example A172, 2-(azetidin-1-yl)-N-(3-(4-morpholinophenyl)-1H-indazol-5-yl)-2-(thiophen-3-yl)acetamide]
≤ 5 µM | ≤ 5 µM | ≤ 5 µM | ≤ 5 µM |  | ≤ 5 µM | ≤ 5 µM | ≤ 5 µM | ≤ 5 µM | ≤ 5 µM |  | CCOC(C(=O)Nc1ccc2[nH]nc(-c3ccc(OC4CCN(C)CC4)cc3)c2c1)c1ccccc1 (centres unmarked) [Example A181, 2-ethoxy-N-(3-(4-((1-methylpiperidin-4-yl)oxy)phenyl)-1H-indazol-5-yl)-2-phenylacetamide]
≤ 5 µM | ≤ 5 µM | ≤ 5 µM | ≤ 5 µM |  | ≤ 5 µM | ≤ 5 µM | ≤ 5 µM | ≤ 5 µM | ≤ 5 µM | ≤ 5 µM | CN1CCC(Oc2ccc(-c3n[nH]c4ccc(NC(=O)C(OC5CCCC5)c5ccccc5)cc34)cc2)CC1 (centres unmarked) [Example A183, 2-(cyclopentyloxy)-N-(3-(4-((1-methylpiperidin-4-yl)oxy)phenyl)-1H-indazol-5-yl)-2-phenylacetamide]
≤ 5 µM | ≤ 5 µM | ≤ 5 µM | ≤ 5 µM |  | ≤ 5 µM |  | ≤ 5 µM | ≤ 5 µM | ≤ 5 µM | ≤ 5 µM | O=C(Nc1ccc2[nH]nc(-c3ccc(OC4CCN(C5COC5)CC4)cc3)c2c1)C(c1ccsc1)N1CCCC1 (centres unmarked) [Example A184, N-(3-(4-((1-(oxetan-3-yl)piperidin-4-yl)oxy)phenyl)-1H-indazol-5-yl)-2-(pyrrolidin-1-yl)-2-(thiophen-3-yl)acetamide]
≤ 5 µM | ≤ 5 µM | ≤ 5 µM | ≤ 5 µM |  | ≤ 5 µM | ≤ 5 µM | ≤ 5 µM | ≤ 5 µM | ≤ 5 µM | ≤ 5 µM | CC(C)OC(C(=O)Nc1ccc2[nH]nc(-c3ccc(OC4CCN(C)CC4)cc3)c2c1)c1ccccc1 (centres unmarked) [Example A187, 2-isopropoxy-N-(3-(4-((1-methylpiperidin-4-yl)oxy)phenyl)-1H-indazol-5-yl)-2-phenylacetamide]
≤ 5 µM | ≤ 5 µM | ≤ 5 µM | ≤ 5 µM |  | ≤ 5 µM | ≤ 5 µM | ≤ 5 µM | ≤ 5 µM | ≤ 5 µM | ≤ 5 µM | CN1CCC(Oc2ccc(-c3n[nH]c4ccc(C(=O)NC(c5ccccc5)C5CC5)cc34)cc2Cl)CC1 (centres unmarked) [Example A188, 3-(3-chloro-4-((1-methylpiperidin-4-yl)oxy)phenyl)-N-(cyclopropyl(phenyl)methyl)-1H-indazole-5-carboxamide]
≤ 5 µM | ≤ 5 µM | ≤ 5 µM | ≤ 5 µM |  | ≤ 5 µM | 20 to 50 µM | ≤ 5 µM | ≤ 5 µM | 5 to 20 µM | ≤ 5 µM | O=C(Nc1ccc2[nH]nc(-c3ccc(OC4CN(C5COC5)C4)cc3)c2c1)C(c1ccsc1)N1CCCC1 (centres unmarked) [Example A189, N-(3-(4-((1-(oxetan-3-yl)azetidin-3-yl)oxy)phenyl)-1H-indazol-5-yl)-2-(pyrrolidin-1-yl)-2-(thiophen-3-yl)acetamide]
≤ 5 µM | ≤ 5 µM | ≤ 5 µM | ≤ 5 µM |  | ≤ 5 µM | ≤ 5 µM | ≤ 5 µM | ≤ 5 µM | ≤ 5 µM | ≤ 5 µM | CN1CCC(Oc2ccc(-c3n[nH]c4ccc(NC(=O)C(c5ccsc5)N5CCC5)cc34)cc2)CC1 (centres unmarked) [Example A191, 2-(azetidin-1-yl)-N-(3-(4-((1-methylpiperidin-4-yl)oxy)phenyl)-1H-indazol-5-yl)-2-(thiophen-3-yl)acetamide]
≤ 5 µM | ≤ 5 µM | ≤ 5 µM | ≤ 5 µM |  | ≤ 5 µM | ≤ 5 µM | ≤ 5 µM | ≤ 5 µM | ≤ 5 µM | ≤ 5 µM | CC[C@H](NC(=O)c1ccc2[nH]nc(-c3ccc(OC4CCN(C5COC5)CC4)cc3)c2c1)c1ccccc1Cl [Example A193, (S)—N-(1-(2-chlorophenyl)propyl)-3-(4-((1-(oxetan-3-yl)piperidin-4-yl)oxy)phenyl)-1H-indazole-5-carboxamide]

Source: patent US20140051679A1, “KINASE INHIBITORS AND METHOD OF TREATING CANCER WITH SAME” (UNIVERISTY HEALTH NETWORKS, priority 2011, published 2014)
